Patent EP1506285B1, “COMBINATIONS OF ANTI-DR5 ANTIBODIES AND ANTI-DR4 ANTIBODIES AND OTHER THERAPEUTIC AGENTS” (UAB RESEARCH FOUNDATION, priority 2001, dated 2003)
Residues, ends and D or L forms follow the SMILES beside them. *: point of attachment. Cbz = O=C(OCc1ccccc1)*; CH2F = FC*

Key:
[1] = tested on: 2LMP s.c. tumors; assay: TRA-8 therapy alone or with chemotherapy or radiation, breast cancer xenografts; type: in vivo, Athymic nude mice
Method: Athymic nude mice were injected s.c. with 3 x 10^7 2LMP cells. […] The growth of tumors was monitored over time. […] Tumor size and regression rates were determined.
Data from 6 independent experiments were analyzed by individual experiment. Treatment combinations were compared with respect to in vivo anti-tumor efficacy, i.e., inhibition of tumor growth, which was measured as three endpoints; extension of tumor doubling times, percentage of tumor regressions, and growth rates over time. The actual number of days at which the tumor doubled in surface area (product of two diameters) relative to baseline on day 7 after tumor cell injection was used in the doubling time analysis. The nonparametric Kruskal-Wallis test was used for median tumor doubling time comparisons between treatments. Fisher's exact test was used to compare the proportions of tumor regressions and relapse-free regressions across treatment groups. To determine if any combination therapy produced significant synergistic inhibition of tumor growth, i.e., more than additive, the growth curves from the serial area measurements were compared using a linear mixed model approach over the first 3 weeks after start of therapy (Lindsey, J.K. Models for Repeated Measurements, pp. 100-142, Oxford, 1993). To test for synergistic effects of the combination therapies, an interaction term was included in the model. If the interaction term was significant and the effect was inhibition of growth at a rate greater than additive then the interaction was considered synergistic.
A total of 166 animals, 10 treatment groups, and 6 independent experiments were included in the aggregate analysis. Treatment combinations were compared with respect to in vivo anti-tumor efficacy. The median tumor doubling times were analyzed using the Kruskal-Wallis test and Fisher's exact test was used to compare the proportions of tumor regressions and relapse-free regressions across treatment groups.

[2] = tested on: 2LMP xenografts; assay: Analysis of apoptosis in xenografts, TUNEL; type: in vivo, Athymic nude mice; conditions: day 14; TRA-8 100 µg i.p. days 7, 10; adriamycin 3 mg/kg or paclitaxel 10 mg/kg days 8, 11
Method: One group of mice was untreated. The xenografts were dissected for the study of apoptosis on day 14 after tumor cell injection. The reason for the substantial reduction in treatment intensity compared to our standard treatment protocol was to allow adequate tumor tissue for analysis on day 14. Tunel assay for apoptosis in tumor xenografts was performed as follows. Five-micron paraffin sections of tissue were mounted on Superfrost/Plus slides and heated at 58°C for 1 h. Tissue sections were deparaffinized in three changes of xylene and rehydrated with one change of absolute ethanol, 95% ethanol, and 70% ethanol, each in 5-min increments. Then, the sections were placed in Tris-buffered saline (0.5M Tris base, 0.15 M NaCl, 0.0002% Triton X-100, pH 7.6). Apoptotic nuclei were detected using an Apop Tag Peroxidase kit (Intergen, Purchase, NY). Proteinase K (20 µg/ml in distilled deionized H2O) was added to the tissue specimens and incubated at room temperature for 15 min. Endogenous peroxidases were quenched with an aqueous solution of 3% hydrogen peroxide for 5 min. Sections were treated with an equilibration buffer for 3 0 min and then incubated with the TdT/enzyme (diluted in labeling reaction mix) for 1 h at 37°C using parafilm covers. During this incubation, the TdT enzyme binds the 3'-OH ends of DNA fragments and catalyzes the addition of digoxigenin-labeled and unlabeled deoxynucleotides. Negative controls were incubated with distilled H2O (diluted in labeling reaction mix) instead of the TdT enzyme. A stop buffer was added for 10 min at room temperature to terminate the labeling reaction. An anti-digoxigenin conjugate was added to each slide for 30 min. The chromagen 3,3' DAB was used to visualize the labeled 3' OH end of DNA fragments. The slides were then rinsed in deionized water and lightly counterstained with hematoxylin, dehydrated using graded alcohols and xylene and coverlsipped using Permount. Approximately 10 random fields were evaluated for percentage of Tunel stained and percentage of intensely stained apoptotic bodies throughout the tissue.

[3] = tested on: CLL B cells; assay: Cytotoxicity to chronic lympholytic leukemia B cells in vitro; type: cell-based, human; conditions: five patients; compared to normal primary B cells
[4] = tested on: Jurkat cells; assay: Cell viability / apoptosis induction in Jurkat cells; type: cell-based, human; conditions: 50 ng/ml TRA-8 overnight
Method: Cell viability is determined using (1) the ATPLite kit according to the manufacturer's instructions (Packard Instruments, Meriden, CT); (2) the MTT Cell proliferation/viability kit (Sigma); or (3) PI staining of dead cells and analyzed by flow cytometry. At end of culture, cells are stained with 10 µg/ml PI and PI negative cells are gated as viable cells. For analysis of condensed nuclei of hepatocytes, cells are stained with 10 ng/ml […] (Molecular Probes) and analyzed by flow cytometry.

[5] = biological target: human DR5/hIgG1 fusion protein (residues 1-180 of the extracellular portion of DR5 fused to the constant region of human IgG1; immunogen, ~50 kDa) (human) (UniProt O14763); assay: ELISA on DR5-Ig, one-site binding model of non-linear regression
[6] = biological target: T1, human DR5, full length, on cells (human, UniProt O14763 56-440); assay: radioisotope-labelled TRA-8 on a breast cancer cell line, compared with soluble TRAIL
T1 construct: whole, on cells; Used for Cos-7 cells transfected with full-length human DR5 cDNA and for human cells, cell lines and tissues that carry DR5 of their own; also called cell surface DR5; TRAIL-R2

## COc1cccc2c1C(=O)c1c(O)c3c(c(O)c1C2=O)C[C@@](O)(C(=O)CO)C[C@@H]3O[C@H]1C[C@H](N)[C@H](O)[C@H](C)O1 [Adriamycin, doxorubicin]
[1]; TRA-8/adriamycin experiment (Figure 25)
  complete regressions of tumor: no complete regressions
[1]; TRA-8/adriamycin experiment (Figure 25), 200 µg TRA-8, adriamycin 6 mg/kg i.v.
  tumor growth compared to untreated controls: did not differ from controls
[2]
  intense stained cells (TUNEL): 6%
  stained cells (TUNEL): 8%

## Cn1cc(C2=C(c3cn(CCCN)c4ccccc34)C(=O)NC2=O)c2ccccc21 [BisVIII, Bisindolylmaleimide VIII]
[3]
  susceptibility of CLL B cells: sensitive

## CC(=O)O[C@H]1C(=O)[C@@]2(C)[C@H]([C@H](OC(=O)c3ccccc3)[C@]3(O)C[C@H](OC(=O)[C@H](O)[C@@H](NC(=O)c4ccccc4)c4ccccc4)C(C)=C1C3(C)C)[C@]1(OC(C)=O)CO[C@@H]1C[C@@H]2O [Paclitaxel]
[1]; TRA-8/paclitaxel experiment (Figure 26)
  complete regressions: none
[2]
  intense stained cells (TUNEL): 2%
  stained cells (TUNEL): 7%

## CC(NC(=O)C(NC(=O)OCc1ccccc1)C(C)C)C(=O)NC(CC(=O)O)C(=O)CF (stereo not drawn) [Z-VAD] (Cbz-Val-Ala-Asp-CH2F; configuration not given here)
[4]
  inhibition of TRA-8-mediated cell death by caspase inhibitor: completely inhibited

## TRA-8 anti-human DR5 monoclonal antibody
[5]
  Kd: 3 nM

## soluble recombinant human TRAIL (FLAG-tagged, Alexis) (from UniProt P50591 95-281) (ligand)
[5]
  Kd: 59 nM

B1: TRA-8 anti-human DR5 monoclonal antibody (antibody, mouse IgG1, kappa, V domains shown)
VH: EVMLVESGGGLVKPGGSLKLSCAASGFTFSSYVMSWVRQTPEKRLEWVATISSGGSYTYYPDSVKGRFTISRDNAKNTLYLQMSSLRSEDTAMYYCARRGDSMITTDYWGQGTTLTVSS
VL: DIVMTQSHKFMSTSVGDRVSITCKASQDVGTAVAWYQQKPGQSPKLLIYWASTRHTGVPDRFTGSGSGTDFTLTISNVQSEDLADYFCQQYSSYRTFGGGTKLEIKR
notes: Mouse IgG1, kappa; also called monoclonal anti-DR5 antibody (clone: TRA-8); mouse-mouse hybridoma TRA-8, ATCC PTA-1428
[6]
  fold higher binding activity than soluble TRAIL: ≥ 50 fold
